For test [1], the system named is TMEM16A. Description: Short-circuit current recordings on human cultured bronchial epithelia, UTP-triggered Cl- secretion. The test is classed as cell-based. Conditions: UTP 0.25 μM; ARN7149 10 μM, ARN11391 20 μM, ARN4550 20 μM; amiloride, paxillin, inh-172 present; FIG. 5A. The protocol: Human bronchial epithelial cells (HBECs) were isolated and cultured as reported in a previous study (21; 40). Briefly, HBECs were cultured in flasks in a home-made serum-free medium (21). After four to five passages, cells were seeded at high density (500,000/cm^2) on Snapwell porous insert (cc3801, Corning Costar). After 24 h from seeding, the basolateral medium was replaced with differentiation medium PneumaCult ALI (Stemcell Technologies), whereas the apical medium was totally removed to obtain the air-liquid interface (ALI) condition. Epithelia were kept under this condition for at least 2-3 weeks to achieve mucociliary differentiation.
Snapwell supports (3801, Corning) carrying FRT and differentiated HBEC epithelia were mounted in a vertical chamber resembling an Ussing system with internal fluid circulation (EM-CSYS-8, Physiologic Instruments, San Diego, CA, USA). For FRT epithelia, the apical and basolateral hemichambers were filled with solutions of different composition. The apical solution (5 ml) contained (in mM): 63 NaCl, 63 sodium gluconate, 0.38 KH2PO4, 2.13 K2HPO4, 2 CaCl2, 1 MgSO4, 20 Na-Hepes (pH 7.3), and 10 glucose. The basolateral solution (5 ml) instead contained (in mM): 126 KCl, 0.38 KH2PO4, 2.13 K2HPO4, 1 CaCl2, 1 MgSO4, 20 Na-Hepes (pH 7.3), and 10 glucose. Both solutions were continuously bubbled with air and the temperature of the solution was kept at 37° C. For HBECs, the same (bicarbonate-buffered) solution was used in both chambers. The composition of this solution was (in mM): 126 NaCl, 0.38 KH2PO4, 2.13 K2HPO4, 1 MgSO4, 1 CaCl2), 24 NaHCO3, and 10 glucose. Both sides were continuously bubbled with a gas mixture containing 5% CO2 and 95% air. […]
Transepithelial voltage was short-circuited with a voltage-clamp (VCC MC8, Physiologic Instruments, San Diego, CA, USA) connected to the apical and basolateral chambers via Ag—AgCl electrodes and agar bridges (2% agar in 1 M KCl). […] The resulting short-circuited current from each channel was recorded on a personal computer with the Acquire & Analize 2.3 software (Physiologic Instruments, San Diego, CA, USA).

Test [2] deals with TMEM16A. Briefly: HS-YFP assay in FRT cells co-expressing TMEM16A and HS-YFP. Conditions: for potentiation of the effect of UTP on TMEM16A: primary screening and secondary tests, compounds 10 μM. It is filed as cell-based. The protocol: Experiments were performed using an automated microplate reader (FLUOstar Omega, BMG Labtech, Offenburg, Germany) equipped with syringe pumps and optical excitation/emission filters optimized for yellow fluorescent protein (YFP) fluorescence (ET500/20× and ET535/30m, respectively; Chroma Technology Corporation). FRT cells with co-expression of TMEM16A and HS-YFP were plated at high density in black wall/clear bottom 96-well microplates (3603, Corning). Each well in microplates was washed 3 times with 150 μl of phosphate-buffered saline (PBS). After washing, each well received 60 μl of PBS containing test compounds at 10 μM final concentration, or TMEM16A inhibitor Ani9 (15) (10 μM), or vehicle. After 20 min of incubation at 37° C., microplates were transferred to the plate reader for fluorescence assay. Each well was assayed individually for TMEM16A-mediated I^− influx by sampling cell fluorescence every 200 ms for 14 s. Two seconds after the start of reading, 165 μl of a modified PBS containing 137 mM KI, instead of NaCl, plus UTP 0.25 μM were automatically added by the reader. K^+ was used in the injected solution to prevent changes of membrane potential due to altered activity of Ca^2+-activated K^+ channels. The fluorescence trace in each well was corrected by background subtraction and then normalized for the initial value measured before I^− addition (F0). The cumulative fluorescence quenching (CFQ) in the time interval between 3 and 13.8 s (representing integration of TMEM16A-dependent I^− influx) was quantified using a procedure compiled in Microsoft Excel according to the formula
For the screening, FRT cells were plated at high density in 96-well microplates. After 48 h, TMEM16A activity was evaluated in a microplate reader by injection in each well of a saline solution containing I^− instead of Cl^− and a submaximal (0.25 μM) UTP concentration (FIG. 1A). Upon injection, UTP triggers Ca^2+ mobilization and TMEM16A activation. The resulting TMEM16A-dependent I^− influx causes HS-YFP quenching. The presence in the well of a small molecule that potentiates TMEM16A activity, in a direct or indirect way, is therefore expected to enhance the rate of HS-YFP quenching.

[3] abbreviates: FRT cells expressing TMEM16A, UTP 0.25 μM, FIG. 1D.

In the case of `OCc1ccccc1CN(Cc1ccnc(N2CCCC2)n1)c1ccc(F)cc1` [ARN4550, [2-[[4-Fluoro-N-[(2-pyrrolidin-1-ylpyrimidin-4-yl)methyl]anilino]methyl]phenyl]methanol], the “transepithelial Cl- current elicited by apical UTP” value in test [1] is given as “significantly enhanced”. Also, in test [2] (setting [3]), the “concentrations at which effective / active, dose-response by HS-YFP assay” value stood at 10 µM. For the same molecule, the “potentiation of the effect of UTP on TMEM16A” value (“potentiation” for short) in test [2] is listed as “significantly potentiated”.
With `CCc1cc(-c2cc(NCCCOc3ccccc3C)nc(N)n2)n(C)n1` [ARN7149, 6-(3-Ethyl-1-methyl-1H-pyrazol-5-yl)-N^4-(3-(o-tolyloxy)propyl)pyrimidine-2,4-diamine], the “transepithelial Cl- current elicited by apical UTP” value in test [1] was “significantly enhanced”. In test [2] (setting [3]), the “concentrations at which effective / active, dose-response by HS-YFP assay” value was 5 to 20 µM and the “shape of dose-response relationship, HS-YFP assay” value is on record as “bell-shaped”. Besides, the “potentiation” value in test [2] was “significantly potentiated”.
On to `CCn1nc2c(c1C(=O)Nc1ccccc1OCC1CCCCO1)CCCC2` (stereo not shown) [ARN11391, 2-Ethyl-N-[2-(tetrahydropyran-2-ylmethoxy)phenyl]-4,5,6,7-tetrahydroindazole-3-carboxamide], for which the “transepithelial Cl- current elicited by apical UTP” value in test [1] is listed as “significantly enhanced”. Further, the “concentrations at which effective / active, dose-response by HS-YFP assay” value in test [2] (setting [3]) was 10 µM. Also, the “potentiation” value in test [2] was “significantly potentiated”.

The record behind these values is patent publication US20260138970A1, “MODULATORS OF THE CALCIUM SIGNALING CASCADE” (FONDAZIONE TELETHON ETS, priority 2022, published 2026).
